For orientation: Ki means a measure of affinity in units of concentration, obtained from inhibition or displacement.

The test has as its target Transient receptor potential cation channel subfamily V member 1 (Homo sapiens, UniProt Q8NER1). Put plainly: Antagonist activity at human TRPV1 heterologously expressed in CHO cells assessed as inhibition of capsaicin-induced activation by FLIPR assay.

Transient receptor potential cation channel subfamily V member 1, sequence (Q8NER1 whole entry): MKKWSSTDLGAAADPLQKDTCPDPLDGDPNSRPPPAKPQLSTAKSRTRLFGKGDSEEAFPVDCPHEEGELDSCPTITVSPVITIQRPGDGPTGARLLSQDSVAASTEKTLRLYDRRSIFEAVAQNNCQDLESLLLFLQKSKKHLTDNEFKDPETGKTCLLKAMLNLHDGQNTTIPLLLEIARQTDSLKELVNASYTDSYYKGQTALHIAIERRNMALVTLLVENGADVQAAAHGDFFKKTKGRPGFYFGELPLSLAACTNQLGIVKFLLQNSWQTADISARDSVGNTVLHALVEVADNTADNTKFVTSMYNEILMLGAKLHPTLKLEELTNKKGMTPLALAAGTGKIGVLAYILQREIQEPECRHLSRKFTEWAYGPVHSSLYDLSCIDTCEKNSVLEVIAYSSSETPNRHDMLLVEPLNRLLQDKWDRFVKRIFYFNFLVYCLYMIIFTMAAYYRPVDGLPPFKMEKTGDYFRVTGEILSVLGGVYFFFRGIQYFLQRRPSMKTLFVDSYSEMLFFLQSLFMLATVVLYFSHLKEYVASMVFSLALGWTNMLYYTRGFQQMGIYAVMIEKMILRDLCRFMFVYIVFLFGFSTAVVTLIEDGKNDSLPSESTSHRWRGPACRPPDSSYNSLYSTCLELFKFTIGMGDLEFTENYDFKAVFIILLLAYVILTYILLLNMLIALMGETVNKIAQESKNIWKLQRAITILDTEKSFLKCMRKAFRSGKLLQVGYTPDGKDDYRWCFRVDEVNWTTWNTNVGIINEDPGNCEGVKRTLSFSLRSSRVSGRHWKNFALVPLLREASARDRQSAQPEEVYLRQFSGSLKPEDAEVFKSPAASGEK

Take `CCCCCOc1cc(C(F)(F)F)ccc1CNC(=O)C(C)c1ccc(NS(C)(=O)=O)c(F)c1` (stereo unspecified): the Ki was determined as 0.7 nM.

(Values after BindingDB's records for doi:10.1016/j.bmc.2015.10.001 (Seoul National University, 2015).)
